Key:
Format in all cases: functional
Conditions in all cases: read-out: IZ
Proteus vulgaris [1] = experiment: Antibacterial activity against Proteus vulgaris at 900 ug/ml after overnight incubation
Escherichia coli [2] = experiment: Antibacterial activity against Escherichia coli at 600 ug/ml after overnight incubation
Escherichia coli [3] = experiment: Antibacterial activity against Escherichia coli at 900 ug/ml after overnight incubation
Proteus vulgaris [4] = experiment: Antibacterial activity against Proteus vulgaris at 600 ug/ml after overnight incubation
Colletotrichum falcatum [5] = experiment: Antifungal activity against Glomerella tucumanensis at 300 ug/ml after 48 hr
Fusarium oxysporum [6] = experiment: Antifungal activity against Fusarium oxysporum at 1200 ug/ml after 48 hr
Fusarium oxysporum [7] = experiment: Antifungal activity against Fusarium oxysporum at 900 ug/ml after 48 hr
Fusarium oxysporum [8] = experiment: Antifungal activity against Fusarium oxysporum at 600 ug/ml after 48 hr
Fusarium oxysporum [9] = experiment: Antifungal activity against Fusarium oxysporum at 300 ug/ml after 48 hr
Candida albicans [10] = experiment: Antifungal activity against Candida albicans at 1200 ug/ml after 48 hr
Candida albicans [11] = experiment: Antifungal activity against Candida albicans at 900 ug/ml after 48 hr
Candida albicans [12] = experiment: Antifungal activity against Candida albicans at 600 ug/ml after 48 hr
Candida albicans [13] = experiment: Antifungal activity against Candida albicans at 300 ug/ml after 48 hr
Streptococcus pyogenes [14] = experiment: Antibacterial activity against Streptococcus pyogenes at 900 ug/ml after overnight incubation
Streptococcus pyogenes [15] = experiment: Antibacterial activity against Streptococcus pyogenes at 600 ug/ml after overnight incubation
Staphylococcus aureus [16] = experiment: Antibacterial activity against Staphylococcus aureus at 900 ug/ml after overnight incubation
Staphylococcus aureus [17] = experiment: Antibacterial activity against Staphylococcus aureus at 600 ug/ml after overnight incubation
Bacillus pumilus [18] = experiment: Antibacterial activity against Bacillus pumilus at 900 ug/ml after overnight incubation
Bacillus pumilus [19] = experiment: Antibacterial activity against Bacillus pumilus at 600 ug/ml after overnight incubation
Priestia megaterium [20] = experiment: Antibacterial activity against Bacillus megaterium at 900 ug/ml after overnight incubation
Priestia megaterium [21] = experiment: Antibacterial activity against Bacillus megaterium at 600 ug/ml after overnight incubation
Bacillus subtilis [22] = experiment: Antibacterial activity against Bacillus subtilis at 900 ug/ml after overnight incubation
Bacillus subtilis [23] = experiment: Antibacterial activity against Bacillus subtilis at 600 ug/ml after overnight incubation
Klebsiella aerogenes [24] = experiment: Antibacterial activity against Enterobacter aerogenes at 900 ug/ml after overnight incubation
Klebsiella aerogenes [25] = experiment: Antibacterial activity against Enterobacter aerogenes at 600 ug/ml after overnight incubation
Klebsiella pneumoniae [26] = experiment: Antibacterial activity against Klebsiella pneumoniae at 900 ug/ml after overnight incubation
Klebsiella pneumoniae [27] = experiment: Antibacterial activity against Klebsiella pneumoniae at 600 ug/ml after overnight incubation
Enterococcus faecalis [28] = experiment: Antibacterial activity against Enterococcus faecalis at 900 ug/ml after overnight incubation
Enterococcus faecalis [29] = experiment: Antibacterial activity against Enterococcus faecalis at 600 ug/ml after overnight incubation
Exserohilum rostratum [30] = experiment: Antifungal activity against Setosphaeria rostrata at 1200 ug/ml after 48 hr
Exserohilum rostratum [31] = experiment: Antifungal activity against Setosphaeria rostrata at 900 ug/ml after 48 hr
Exserohilum rostratum [32] = experiment: Antifungal activity against Setosphaeria rostrata at 600 ug/ml after 48 hr
Exserohilum rostratum [33] = experiment: Antifungal activity against Setosphaeria rostrata at 300 ug/ml after 48 hr
Colletotrichum falcatum [34] = experiment: Antifungal activity against Glomerella tucumanensis at 1200 ug/ml after 48 hr
Colletotrichum falcatum [35] = experiment: Antifungal activity against Glomerella tucumanensis at 900 ug/ml after 48 hr
Colletotrichum falcatum [36] = experiment: Antifungal activity against Glomerella tucumanensis at 600 ug/ml after 48 hr

Compound | zone of inhibition at 900 µg/mL (Proteus vulgaris [1]) [mm] | zone of inhibition at 600 µg/mL (Escherichia coli [2]) [mm] | zone of inhibition at 900 µg/mL (Escherichia coli [3]) [mm] | zone of inhibition at 600 µg/mL (Proteus vulgaris [4]) [mm] | zone of inhibition at 300 µg/mL (Colletotrichum falcatum [5]) [mm] | zone of inhibition at 1200 µg/mL (Fusarium oxysporum [6]) [mm] | zone of inhibition at 900 µg/mL (Fusarium oxysporum [7]) [mm] | zone of inhibition at 600 µg/mL (Fusarium oxysporum [8]) [mm] | zone of inhibition at 300 µg/mL (Fusarium oxysporum [9]) [mm] | zone of inhibition at 1200 µg/mL (Candida albicans [10]) [mm] | zone of inhibition at 900 µg/mL (Candida albicans [11]) [mm] | zone of inhibition at 600 µg/mL (Candida albicans [12]) [mm] | zone of inhibition at 300 µg/mL (Candida albicans [13]) [mm] | zone of inhibition at 900 µg/mL (Streptococcus pyogenes [14]) [mm] | zone of inhibition at 600 µg/mL (Streptococcus pyogenes [15]) [mm] | zone of inhibition at 900 µg/mL (Staphylococcus aureus [16]) [mm] | zone of inhibition at 600 µg/mL (Staphylococcus aureus [17]) [mm] | zone of inhibition at 900 µg/mL (Bacillus pumilus [18]) [mm] | zone of inhibition at 600 µg/mL (Bacillus pumilus [19]) [mm] | zone of inhibition at 900 µg/mL (Priestia megaterium [20]) [mm] | also measured
CC(C)(C)c1cc(-c2nnc(CN3CCC(n4nc5ccccc5n4)CC3)o2)cc(C(C)(C)C)c1 | 9.45 | 3.25 | 6.8 | 4.95 | 3.98 | 33.8 | 17.9 | 9.25 | 4.5 | 29.9 | 15 | 7.08 | 3.97 | 8.95 | 3.95 | 9.05 | 4.3 | 9.95 | 4.56 | 8.21 | zone of inhibition at 600 µg/mL (Priestia megaterium [21]): 3.95 mm; zone of inhibition at 900 µg/mL (Bacillus subtilis [22]): 11.2 mm; zone of inhibition at 600 µg/mL (Bacillus subtilis [23]): 5.05 mm; zone of inhibition at 900 µg/mL (Klebsiella aerogenes [24]): 7.25 mm; zone of inhibition at 600 µg/mL (Klebsiella aerogenes [25]): 3.5 mm; zone of inhibition at 900 µg/mL (Klebsiella pneumoniae [26]): 7.85 mm; zone of inhibition at 600 µg/mL (Klebsiella pneumoniae [27]): 3.85 mm; zone of inhibition at 900 µg/mL (Enterococcus faecalis [28]): 11.6 mm; zone of inhibition at 600 µg/mL (Enterococcus faecalis [29]): 5.85 mm; zone of inhibition at 1200 µg/mL (Exserohilum rostratum [30]): 29.8 mm; zone of inhibition at 900 µg/mL (Exserohilum rostratum [31]): 15.9 mm; zone of inhibition at 600 µg/mL (Exserohilum rostratum [32]): 8.25 mm; zone of inhibition at 300 µg/mL (Exserohilum rostratum [33]): 4.54 mm; zone of inhibition at 1200 µg/mL (Colletotrichum falcatum [34]): 32 mm; zone of inhibition at 900 µg/mL (Colletotrichum falcatum [35]): 15.8 mm; zone of inhibition at 600 µg/mL (Colletotrichum falcatum [36]): 8.32 mm
c1ccc(-c2nnc(CN3CCC(n4nc5ccccc5n4)CC3)o2)cc1 | 7.5 | 2.24 | 4.85 | 3.8 | 3.56 | 21.3 | 10.2 | 4.85 | 2.25 | 24.2 | 13.2 | 6.05 | 3.12 | 8.25 | 4.01 | 8.25 | 3.26 | 8.65 | 4.25 | 11.4 | zone of inhibition at 600 µg/mL (Priestia megaterium [21]): 5.82 mm; zone of inhibition at 900 µg/mL (Bacillus subtilis [22]): 5.45 mm; zone of inhibition at 600 µg/mL (Bacillus subtilis [23]): 2.65 mm; zone of inhibition at 900 µg/mL (Klebsiella aerogenes [24]): 11.2 mm; zone of inhibition at 600 µg/mL (Klebsiella aerogenes [25]): 5.82 mm; zone of inhibition at 900 µg/mL (Klebsiella pneumoniae [26]): 6.56 mm; zone of inhibition at 600 µg/mL (Klebsiella pneumoniae [27]): 3.35 mm; zone of inhibition at 900 µg/mL (Enterococcus faecalis [28]): 9.25 mm; zone of inhibition at 600 µg/mL (Enterococcus faecalis [29]): 4.25 mm; zone of inhibition at 1200 µg/mL (Exserohilum rostratum [30]): 24 mm; zone of inhibition at 900 µg/mL (Exserohilum rostratum [31]): 11.8 mm; zone of inhibition at 600 µg/mL (Exserohilum rostratum [32]): 6.25 mm; zone of inhibition at 300 µg/mL (Exserohilum rostratum [33]): 3.15 mm; zone of inhibition at 1200 µg/mL (Colletotrichum falcatum [34]): 27.9 mm; zone of inhibition at 900 µg/mL (Colletotrichum falcatum [35]): 13.2 mm; zone of inhibition at 600 µg/mL (Colletotrichum falcatum [36]): 7.26 mm
Fc1cccc(-c2nnc(CN3CCC(n4nc5ccccc5n4)CC3)o2)c1F | 8.74 | 3.25 | 7.15 | 4.56 | 4.82 | 25.4 | 13.2 | 7.01 | 4.21 | 17.2 | 9.86 | 5.25 | 3.33 | 3.15 | 1.13 | 7.56 | 4.25 | 7.24 | 3.35 | 11.2 | zone of inhibition at 600 µg/mL (Priestia megaterium [21]): 5.86 mm; zone of inhibition at 900 µg/mL (Bacillus subtilis [22]): 9.56 mm; zone of inhibition at 600 µg/mL (Bacillus subtilis [23]): 4.8 mm; zone of inhibition at 900 µg/mL (Klebsiella aerogenes [24]): 5.45 mm; zone of inhibition at 600 µg/mL (Klebsiella aerogenes [25]): 2.09 mm; zone of inhibition at 900 µg/mL (Klebsiella pneumoniae [26]): 13.2 mm; zone of inhibition at 600 µg/mL (Klebsiella pneumoniae [27]): 6.23 mm; zone of inhibition at 900 µg/mL (Enterococcus faecalis [28]): 5.36 mm; zone of inhibition at 600 µg/mL (Enterococcus faecalis [29]): 2.35 mm; zone of inhibition at 1200 µg/mL (Exserohilum rostratum [30]): 29.8 mm; zone of inhibition at 900 µg/mL (Exserohilum rostratum [31]): 15 mm; zone of inhibition at 600 µg/mL (Exserohilum rostratum [32]): 7.86 mm; zone of inhibition at 300 µg/mL (Exserohilum rostratum [33]): 3.81 mm; zone of inhibition at 1200 µg/mL (Colletotrichum falcatum [34]): 33.9 mm; zone of inhibition at 900 µg/mL (Colletotrichum falcatum [35]): 17.8 mm; zone of inhibition at 600 µg/mL (Colletotrichum falcatum [36]): 9.25 mm
